{
  "source": "ChEMBL document CHEMBL4627257",
  "about": "“Targeting the DNA damage response (DDR) by natural compounds” (Bioorg Med Chem, 2020)",
  "key": {"SU.86.86 [1]": {"tested_on": "SU.86.86", "test": "Induction of DNA damage in human SU8686 cells assessed as increase in gammaH2AX phosphorylation at […] at cytotoxic IC50 incubated for 24 hrs by fluorometry method", "format": "functional"}, "SU.86.86 [2]": {"tested_on": "SU.86.86", "test": "Induction of DNA damage in human SU8686 cells assessed as increase in gammaH2AX phosphorylation at […] at cytotoxic IC50 in presence of 5 uM cisplatin by fluorometry method", "format": "functional"}, "SU.86.86 [3]": {"tested_on": "SU.86.86", "test": "Induction of DNA damage in human SU8686 cells assessed as tail DNA formation at IC50 in presence of 5 uM cisplatin by alkaline Comet assay", "format": "functional, cell-based"}, "SU.86.86 [4]": {"tested_on": "SU.86.86", "test": "Induction of DNA damage in human SU8686 cells assessed as increase gammaH2AX protein level at IC50 for 24 hrs by western blot analysis", "format": "functional, cell-based"}, "SU.86.86 [5]": {"tested_on": "SU.86.86", "test": "Induction of DNA damage in human SU8686 cells assessed as tail DNA formation at IC50 by alkaline Comet assay", "format": "functional, cell-based"}, "SU.86.86 [6]": {"tested_on": "SU.86.86", "test": "Induction of DNA damage in human SU8686 cells assessed as increase in gammaH2AX nuclear foci under basal condition at IC50 by fluorometry method", "format": "functional, cell-based"}, "[7]": {"test": "Drug uptake in human SU8686 cells assessed as increase in doxorubicin uptake by flow cytometry analysis", "format": "ADME, cell-based", "conditions": "su.86.86"}},
  "note": "Active and inactive are the calls of the source. The rule behind the calls is not given here.",
  "data": [
    {"molecule": "CC1=CCC[C@H]2[C@@](C)(CC3=C(O)C(=O)C=C(NCCc4ccccc4)C3=O)[C@@H](C)CC[C@@]12C", "values": [
      {"measurement": "Activity", "setting": "SU.86.86 [1]", "result": ">30", "unit": "%"},
      {"measurement": "Activity", "setting": "SU.86.86 [2]", "result": ">20", "unit": "%"},
      {"measurement": "Activity", "setting": "SU.86.86 [3]", "result": "Active"},
      {"measurement": "Activity", "setting": "SU.86.86 [4]", "result": "Active"},
      {"measurement": "Activity", "setting": "SU.86.86 [5]", "result": "Active"},
      {"measurement": "Activity", "setting": "SU.86.86 [6]", "result": "Active"},
      {"measurement": "Drug uptake", "setting": "[7]", "result": "Active"}
    ]}
  ]
}
